Measurements from patent US9695155B2, “Herbicidal substituted pyrimidinyloxy benzene compounds” (E. I. DU PONT DE NEMOURS AND COMPANY, priority 2013, dated 2017).

Legend:
Assay in all cases: Test E postemergence
field bindweed = format: in vivo, Convolvulus arvensis; conditions: Convolvulus arvensis, post-emergence, read-out: Plant response rating, Field Bindweed; for pest or weed control at 31 g/ha: 31 g ai/ha; for pest or weed control at 62 g/ha: 62 g ai/ha; for pest or weed control at 125 g/ha: 125 g ai/ha; for pest or weed control at 16 g/ha: postemergence, 16 g ai/ha, scale 0 to 100, 0 no effect, 100 complete control
Description: (§1) Seeds of plant species selected from corn (Zea mays), soybean (Glycine max), velvetleaf (Abutilon theophrasti), lambsquarters (Chenopodium album), wild poinsettia (Euphorbia heterophylla), palmer pigweed (Amaranthus palmeri), waterhemp (common waterhemp, Amaranthus rudis), surinam grass (Brachiaria decumbens), large (Lg) crabgrass (Digitaria sanguinalis), Brazilian crabgrass (Digitaria horizontalis), fall panicum (Panicum dichotomiflorum), giant foxtail (Setaria faberii), green foxtail (Setaria viridis), goosegrass (Eleusine indica), johnsongrass (Sorghum halepense), ragweed (common ragweed, Ambrosia elatior), barnyardgrass (Echinochloa crus-galli), sandbur (southern sandbur, Cenchrus echinatus), arrowleaf sida (Sida rhombifolia), Italian ryegrass (Lolium multiflorum), dayflower (Virginia (VA) dayflower, Commelina virginica), field bindweed (Convolvulus arvensis), morningglory (Ipomoea coccinea), nightshade (eastern black nightshade, Solanum ptycanthum), kochia (Kochia scoparia), yellow nutsedge (Cyperus esculentus), cocklebur (common cocklebur, Xanthium strumarium), smartweed (ladysthumb smartweed, and hairy beggarticks (Bidens pilosa), were planted into a silt loam soil and treated preemergence with test chemicals formulated in a non-phytotoxic solvent mixture which included a surfactant.
(§2) At the same time, plants from these crop and weed species and also horseweed (Canada horseweed, Conyza canadensis), waterhemp_RES1, (ALS & Triazine resistant common waterhemp, Amaranthus rudis), and waterhemp_RES2, (ALS & HPPD resistant common waterhemp, Amaranthus rudis) were planted in pots containing Redi-Earth® planting medium (Scotts Company, 14111 Scottslawn Road, Marysville, Ohio 43041) comprising spaghnum peat moss, vermiculite, wetting agent and starter nutrients were treated with postemergence applications of test chemicals formulated in the same manner. Plants ranged in height from 2 to 18 cm for postemergence treatments (1- to 4-leaf stage). Treated plants and controls were maintained in a greenhouse for 14 to 21 days, after which time all species were compared to controls and visually evaluated. Plant response ratings, summarized in Table E, are based on a scale of 0 to 100 where 0 is no effect and 100 is complete control. A dash (-) response means no test result.

soybean = format: in vivo, Glycine max; conditions: Glycine max, post-emergence; for plant response (crop injury) rating, soybean, 0-100 scale at 31 g/ha: 31 g ai/ha; for plant response (crop injury) rating, soybean, 0-100 scale at 62 g/ha: 62 g ai/ha; for plant response (crop injury) rating, soybean, 0-100 scale at 125 g/ha: 125 g ai/ha; for plant response (crop injury) rating, soybean, 0-100 scale at 16 g/ha: postemergence, 16 g ai/ha, scale 0 to 100, 0 no effect, 100 complete control
Description: as §1, §2

hairy beggarticks = format: in vivo, Bidens pilosa; conditions: Bidens pilosa, post-emergence, read-out: Plant response rating, Beggarticks; for pest or weed control at 31 g/ha: 31 g ai/ha; for pest or weed control at 62 g/ha: 62 g ai/ha; for pest or weed control at 125 g/ha: 125 g ai/ha; for pest or weed control at 16 g/ha: postemergence, 16 g ai/ha, scale 0 to 100, 0 no effect, 100 complete control
Description: as §1, §2

dayflower = format: in vivo, Commelina virginica; conditions: Commelina virginica, post-emergence, read-out: Plant response rating, Dayflower, VA; for pest or weed control at 31 g/ha: 31 g ai/ha; for pest or weed control at 62 g/ha: 62 g ai/ha; for pest or weed control at 125 g/ha: 125 g ai/ha; for pest or weed control at 16 g/ha: postemergence, 16 g ai/ha, scale 0 to 100, 0 no effect, 100 complete control
Description: as §1, §2

sandbur = format: in vivo, Cenchrus echinatus; conditions: Cenchrus echinatus, post-emergence, read-out: Plant response rating, Sandbur; for pest or weed control at 31 g/ha: 31 g ai/ha; for pest or weed control at 62 g/ha: 62 g ai/ha; for pest or weed control at 125 g/ha: 125 g ai/ha; for pest or weed control at 16 g/ha: postemergence, 16 g ai/ha, scale 0 to 100, 0 no effect, 100 complete control
Description: as §1, §2

[1] = Postemergence, 250 g ai/ha, scale 0 to 100

Clc1cnn(-c2ccccc2Oc2ncc(Br)cn2)c1 [Compound 5, 5-bromo-2-[2-(4-chloro-1H-pyrazol-1-yl)phenoxy]pyrimidine]
pest or weed control at 31 g/ha (field bindweed; Postemergence, scale 0 to 100): 20%
pest or weed control at 62 g/ha (field bindweed; Postemergence, scale 0 to 100): 30%
pest or weed control at 125 g/ha (field bindweed; Postemergence, scale 0 to 100): 30%
pest or weed control at 250 g/ha (field bindweed; [1]): 40%
pest or weed control at 16 g/ha (field bindweed): 10%
plant response (crop injury) rating, soybean, 0-100 scale at 31 g/ha (soybean; Postemergence, scale 0 to 100): 30%
plant response (crop injury) rating, soybean, 0-100 scale at 62 g/ha (soybean; Postemergence, scale 0 to 100): 70%
plant response (crop injury) rating, soybean, 0-100 scale at 125 g/ha (soybean; Postemergence, scale 0 to 100): 80%
plant response (crop injury) rating, soybean, 0-100 scale at 250 g/ha (soybean; [1]): 95%
plant response (crop injury) rating, soybean, 0-100 scale at 16 g/ha (soybean): 20%
pest or weed control at 31 g/ha (hairy beggarticks; Postemergence, scale 0 to 100): 40%
pest or weed control at 62 g/ha (hairy beggarticks; Postemergence, scale 0 to 100): 60%
pest or weed control at 125 g/ha (hairy beggarticks; Postemergence, scale 0 to 100): 60%
pest or weed control at 250 g/ha (hairy beggarticks; [1]): 70%
pest or weed control at 16 g/ha (hairy beggarticks): 30%
pest or weed control at 31 g/ha (dayflower; Postemergence, scale 0 to 100): 10%
pest or weed control at 62 g/ha (dayflower; Postemergence, scale 0 to 100): 10%
pest or weed control at 125 g/ha (dayflower; Postemergence, scale 0 to 100): 40%
pest or weed control at 250 g/ha (dayflower; [1]): 75%
pest or weed control at 16 g/ha (dayflower): 0%
pest or weed control at 31 g/ha (sandbur; Postemergence, scale 0 to 100): 0%
pest or weed control at 62 g/ha (sandbur; Postemergence, scale 0 to 100): 0%
pest or weed control at 125 g/ha (sandbur; Postemergence, scale 0 to 100): 10%
pest or weed control at 250 g/ha (sandbur; [1]): 20%
pest or weed control at 16 g/ha (sandbur): 0%

N#Cc1cccc(Oc2ncc(F)cn2)c1-n1cc(C(F)(F)F)cn1 [Compound 79, 3-[(5-fluoro-2-pyrimidinyl)oxy]-2-[4-(trifluoromethyl)-1H-pyrazol-1-yl]benzonitrile]
pest or weed control at 31 g/ha (field bindweed; Postemergence, scale 0 to 100): 70%
pest or weed control at 62 g/ha (field bindweed; Postemergence, scale 0 to 100): 80%
pest or weed control at 125 g/ha (field bindweed; Postemergence, scale 0 to 100): 80%
pest or weed control at 16 g/ha (field bindweed): 60%
plant response (crop injury) rating, soybean, 0-100 scale at 31 g/ha (soybean; Postemergence, scale 0 to 100): 70%
plant response (crop injury) rating, soybean, 0-100 scale at 62 g/ha (soybean; Postemergence, scale 0 to 100): 95%
plant response (crop injury) rating, soybean, 0-100 scale at 125 g/ha (soybean; Postemergence, scale 0 to 100): 95%
plant response (crop injury) rating, soybean, 0-100 scale at 16 g/ha (soybean): 60%
pest or weed control at 31 g/ha (hairy beggarticks; Postemergence, scale 0 to 100): 50%
pest or weed control at 62 g/ha (hairy beggarticks; Postemergence, scale 0 to 100): 75%
pest or weed control at 125 g/ha (hairy beggarticks; Postemergence, scale 0 to 100): 80%
pest or weed control at 16 g/ha (hairy beggarticks): 40%
pest or weed control at 31 g/ha (dayflower; Postemergence, scale 0 to 100): 30%
pest or weed control at 62 g/ha (dayflower; Postemergence, scale 0 to 100): 50%
pest or weed control at 125 g/ha (dayflower; Postemergence, scale 0 to 100): 50%
pest or weed control at 16 g/ha (dayflower): 10%
pest or weed control at 31 g/ha (sandbur; Postemergence, scale 0 to 100): 0%
pest or weed control at 62 g/ha (sandbur; Postemergence, scale 0 to 100): 0%
pest or weed control at 125 g/ha (sandbur; Postemergence, scale 0 to 100): 10%
pest or weed control at 16 g/ha (sandbur): 0%
